The values that follow are results of earlier work, collected in patent US20110245202A1, “PHARMACEUTICAL COMPOSITION FOR THE TREATMENT OF RHINITIS” (priority 2003, published 2011).

The conditions of this data set: fraction of the action of naturally occurring (1R,2S)-ephedrine.

Turning to `CN[C@H](C)[C@@H](O)c1ccccc1` [(1S,2R)-ephedrine], the “pharmacological action relative to the natural form (−)-ephedrine” value is “approximately one third”.
